According to the supplement of paper PMC8882468:

How the values were obtained:
Experiment in all cases: CTG-3D luminescence at 96 h relative to day-0 seeding control (ratio to day 0); higher = more growth / less cytotoxicity
HCI-019 = tested on: HCI-019 (organoid from a triple-negative breast cancer xenograft)
Description: (§1)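 PDxO 3D drug screen (set 2), 8-point dose, 96 h; CTG-3D luminescence normalised to day-0 seeding control (mean of 4 wells each).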

HCI-008 = tested on: HCI-008 (organoid from a HER2-enriched breast cancer xenograft)
Description: as §1

HCI-024 = tested on: HCI-024 (organoid from a breast cancer xenograft)
Description: as §1

HCI-003.E2 = tested on: HCI-003.E2 (organoid from an ER-positive breast cancer xenograft)
Description: as §1

CC/C(=C(\c1ccc(O)cc1)c1ccc(OCCN(C)C)cc1)c1ccccc1 [4-hydroxytamoxifen]
CTG-3D luminescence at 96 h
Details | 12.5 pM | 0.00025 µM | 0.005 µM | 0.1 µM | 1 µM | 10 µM | 100 µM | 625 fM
HCI-008, days in culture: 325 | 1.16 | 3.13 | 1.6 | 3.49 | 3.48 | 2.12 | 0.0259 | 1.52
HCI-008, days in culture: 340 | 1.38 | 1.51 | 1.18 | 1.09 | 1.46 | – | 0.00621 | 1.32
HCI-008, days in culture: 354 | 1.2 | 1.03 | 2.12 | 1.34 | 1.26 | 1.3 | 0.00452 | 0.999
HCI-008, days in culture: 382 | 1.86 | 1.74 | 1.28 | 1.63 | 0.792 | 1.56 | 0.0061 | 1.74
HCI-019, days in culture: 173 | 1.97 | 1.2 | 1.04 | 1.81 | 1.85 | 0.914 | 0.0117 | 1.34
HCI-019, days in culture: 194 | 1.24 | 0.815 | 2.23 | 0.96 | 2.13 | 0.944 | 0.00421 | 2.45
HCI-019, days in culture: 215 | 2.34 | 1.56 | 1.23 | 1.28 | 1.14 | 0.473 | 0.00476 | 1.5
HCI-024, days in culture: 202 | 1.48 | 1.18 | 1.56 | 1.67 | 0.953 | 1.09 | 0.00631 | 1.74
HCI-024, days in culture: 231 | 1.05 | 1.07 | 1.18 | 0.978 | 0.782 | 0.83 | 0.00137 | 1.07
HCI-024, days in culture: 254 | 1.94 | 1.16 | 1.05 | 1.38 | 1.28 | 0.958 | 0.00459 | 0.909

HCI-003.E2
Details | CTG-3D luminescence at 96 h
12.5 pM | 2.27
0.00025 µM | 2.32
0.005 µM | 2.33
0.1 µM | 2.5
1 µM | 1.94
10 µM | 1.18
100 µM | 0.0128
625 fM | 2.7
